This is an account of results in patent US7520897B2, “Medical devices having antimicrobial properties” (Helix Medical, LLC, priority 2001, dated 2009).

Series [1] is described as follows: Acute Oral Toxicity (7 day observation in the mouse). The format is in vivo.
A short description of series [2]: Cytotoxicity (MEM Elution) of organic antimicrobial valve material. The format is cell-based.

For `CCCCOC(=O)c1ccc(O)cc1` [Butyl Paraben, butyl p-hydroxy Benzoate], the “Acute Oral Toxicity (7 day observation in the mouse)” value in series [1] is “Nontoxic”. The “Cytotoxicity (MEM Elution) on the device with valve material” value in series [2] is “Nontoxic”.
`Oc1cc(Cl)ccc1Oc1ccc(Cl)cc1Cl` [Triclosan, 2,4,4′-trichloro-2′-hydroxydiphenyl ether]: the “Acute Oral Toxicity (7 day observation in the mouse)” value in series [1] is “Nontoxic”. Moreover, the “Cytotoxicity (MEM Elution) on the device with valve material” value in series [2] was “Nontoxic”. The “Cytotoxicity (MEM Elution) on the valve material alone” value in series [2] (valve material alone) is “Toxic”.
